Patent US12410124B2 (priority 2019, dated 2025)
Like-named read-outs stand apart in the source and are kept apart here.

System: fetal rat midbrain neurons
Test: Survival rate of primary midbrain neurons induced by MPP+ (CCK-8)
Type: cell-based
Conditions: for viability at 5 µM / viability at 10 µM / viability at 20 µM: Rattus norvegicus, Neuron, read-out: Survival rate (%); for survival rate compared with the styryl sulfone prototype compounds: no concentration stated
From the text: The main pathological feature of Parkinson's disease (PD) lies in the degeneration and loss of dopaminergic neuron in the substantia nigra-striatum of the midbrain. 1-Methyl-4-phenylpyridinium (MPP+) has a high affinity to dopamine carriers and a selective toxicity on dopaminergic neurons. Thus, MPP+ is one of the most ideal classic neurotoxins for establishing PD cell models. The primary cell culture of fetal rat midbrain is often used to establish PD cell models in recent years. Although it is more cumbersome and has higher technical requirements than cell line culture, it is closer to the pathological characteristics of PD. Thus, a PD cell model is established using neurons from the primary cell culture of fetal rat midbrain under MPP+ induction, to evaluate the protective effect of target compounds on the model neurons.
The midbrain was separated from a fetal rat of a 15-day-pregnant SD rat and cut into pieces, then subjected to trypsin digestion, pipetting, screen filtration, and resuspension steps, and inoculated in a 24-well cell culture plate pre-coated with poly-D-lysine. 12 hours after culture, cytarabine was added to inhibit the growth of glial cells. On the 5th day of neuron growth, the toxin MPP+ can be added to make a PD cell model. When detecting the activity of a target compound, the target compound was pre-incubated with midbrain neurons for 3 h, then MPP+ was added, and after 48 h co-incubation the neuronal viability was detected by CCK-8 method and the neuronal survival rate was calculated to evaluate the inhibitory activity of the target compound on the midbrain neuronal PD damage. The experiment included blank control group, MPP+ model group, positive control group (caffeic acid phenethyl ester, CAPE), prototype control group (styryl sulfone compounds 3B, 3C, 3D, and 3G), and target compound group (prepared according to Examples 1-22 in the invention).

[1] = 5 μM, 3 h pre-incubation, 48 h with MPP+
[2] = 10 μM, 3 h pre-incubation, 48 h with MPP+
[3] = 20 μM, 3 h pre-incubation, 48 h with MPP+

Row | Compound | viability at 5 µM [1] [%] | viability at 10 µM [2] [%] | viability at 20 µM [3] [%] | viability at 5 µM (48 h) [%] | viability at 10 µM (48 h) [%] | viability at 20 µM (48 h) [%] | also measured
1 | O=S(=O)(/C=C/c1ccc(O)c(O)c1)Cc1ccc(C(F)(F)F)cc1 [Compound 3B, (E)-4-{2-[(4-trifluoromethylphenyl)mesyl]ethenyl}benzene-1,2-diol, reference compound] | 65.9 ± 1.47 | 76.4 ± 6.54 | 84.9 ± 2.65 | – | – | – | –
2 | CN(C)c1ccc(CC(=O)Oc2cc(/C=C/S(=O)(=O)C(Br)c3ccc(Cc4ccc(N(C)C)cc4)cc3)ccc2OC(=O)N2CCCC2C(F)(F)F)cc1 (stereo not drawn) [Compound M1-5] | 68.2 ± 4.31 | 78.2 ± 3.76 | 86.9 ± 3.08 | – | – | – | –
3 | CCN(C)C(=O)Oc1ccc(/C=C/S(=O)(=O)CC(c2ccc(-c3ccc(OC)c(OC)c3)cc2)[N+](=O)[O-])cc1OC(=O)N(C)CC (stereo not drawn) [Compound M1-1, (E)-4-{2-[2-(3′,4′-dimethoxy-[1,1′-biphenyl]-4-yl)-2-nitroethylsulfonyl]ethenyl}-1,2-phenylenebis(N-ethyl-N-methylcarbamate)] | – | – | – | 82.4 ± 2.54 | 89.9 ± 3.67 | 95.1 ± 1.94 | –
4 | CCN(CC)C(=O)Oc1ccc(/C=C/S(=O)(=O)Cc2ccc(C(C)(C)C)cc2)cc1OC(=O)N(CC)CC [Compound G1-1, (E)-4-{2-[(4-t-butylphenyl)mesyl]ethenyl}-1,2-phenylenebis(diethylcarbamate)] | 78.5 ± 3.59 | 85.9 ± 2.67 | 91.4 ± 1.59 | – | – | – | survival rate compared with the styryl sulfone prototype compounds: significantly increased
5 | COc1cc(/C=C/S(=O)(=O)Cc2cc(OC)c(OC)c(OC)c2)ccc1OC(=O)N(c1ccccc1)c1ccccc1 [Compound K3-3, (E)-2-methoxy-4-{2-[(3,4,5-trimethoxyphenyl)mesyl]ethenyl}-phenyl-N,N-diphenylcarbamate] | 62.5 ± 3.58 | 75.5 ± 2.37 | 88.5 ± 1.73 | – | – | – | –
6 | COc1ccc(CC(=O)Oc2ccc(C(N)CS(=O)(=O)/C=C/c3ccc(OC(C)(C)C)c(OC(=O)N(C)c4ccccc4)c3)cc2)cc1 (stereo not drawn) [Compound P1-3, (E)-4-{1-amino-2-[4-t-butoxy-3-(N-methyl-N-phenylcarbamoyloxy)styrylsulfonyl]ethyl}phenyl-2-(4-methoxyphenyl)acetate] | – | – | – | 71 ± 3.56 | 85.2 ± 2.94 | 93.7 ± 3.08 | –
7 | CCN(CC)C(=O)Oc1ccc(/C=C/S(=O)(=O)Cc2ccc(Cl)cc2)cc1OC(=O)N(CC)CC [Compound D1-1, (E)-4-{2-[(4-chlorophenyl)mesyl]ethenyl}-1,2-phenylenebis(diethylcarbamate)] | 80.3 ± 2.67 | 94.6 ± 3.76 | 98 ± 1.32 | – | – | – | survival rate compared with the styryl sulfone prototype compounds: significantly increased
8 | (E)-2-[(methylamino)methoxy]-4-{2-[1-(4′-nitro-[1,1′-biphenyl]-4-yl)ethylsulfonyl]ethenyl}phenylcarbamate [Compound M1-3] | – | – | – | – | – | – | Survival rate (%) [1]: 76.51 ± 4.82%; Survival rate (%) [2]: 85.29 ± 2.97%; Survival rate (%) [3]: 93.26 ± 2.26%
9 | O=S(=O)(/C=C/c1ccc(O)c(O)c1)Cc1ccc(Cl)cc1 [Compound 3D, (E)-4-{2-[(4-chlorophenyl)mesyl]ethenyl}benzene-1,2-diol, reference compound] | 69.5 ± 5.21 | 84.1 ± 1.87 | 91.5 ± 2.32 | – | – | – | –
10 | O=C(NC(=O)C(F)(F)F)Oc1ccc(/C=C/S(=O)(=O)C(F)(F)c2ccc(Oc3ccccn3)cc2)cc1OC(=O)C(F)(F)C(F)(F)F [Compound L1-4, (E)-5-{2-[(4-[pyridin-2-yl-oxy]phenyl)difluoromethylsulfonyl]ethenyl}-2-[N-(2,2,2-trifluoroacetyl)carbamoyloxy]phenyl-2,2,3,3,3-pentafluoropropionate] | 67.5 ± 3.52 | 75.4 ± 2.59 | 86.2 ± 1.86 | – | – | – | –
11 | COCCN(C)C(=O)Oc1cc(/C=C/S(=O)(=O)CCc2cccc(-c3ccc(C)o3)c2)ccc1OC(C)=O [Compound J1-4, (E)-2-[N-(2-methoxyethyl)-N-methylcarbamoyloxy]-4-{2-[3-(5-methylfur-2-yl)phenylethylsulfonyl]ethenyl}phenyl acetate] | – | – | – | 75.2 ± 3.29 | 84.8 ± 2.27 | 90.3 ± 2.6 | –
12 | Cc1ccc(N2CCN(C(=O)Oc3ccc(/C=C/S(=O)(=O)CCCC(c4ccc(OC(=O)CN(C)C)cc4)N(C)C)cc3OC(=O)N(C)c3ccccc3)CC2)cc1 (stereo not drawn) [Compound P1-1, (E)-4-{2-[4-(dimethylamino)-4-(4-(N,N-dimethylglycyloxy)phenyl)butylsulfonyl]ethenyl}-2-(N-methyl-N-phenylcarbamoyloxy)phenyl-4-(p-methylphenyl)piperazine-1-carboxylate] | – | – | – | 75.3 ± 3.12 | 86.6 ± 2.39 | 92.2 ± 3.05 | –
13 | CCOC(CS(=O)(=O)/C=C/c1ccc(OC(C)=O)c(OC(=O)Nc2ccc(NC)cc2)c1)C(OCC)c1ccc(OCc2ccccc2)c(O)c1 (stereo not drawn) [Compound H2-4, (E)-4-{2-[3-(4-benzyloxy-3-hydroxyphenyl)-2,3-diethoxypropyl]sulfonylethenyl}-2-[N-(4-methylaminophenyl)carbamoyloxy]phenyl acetate] | 69 ± 4.31 | 81.5 ± 3.24 | 89.4 ± 1.65 | – | – | – | –
14 | O=S(=O)(/C=C/c1ccc(O)c(O)c1)CCCc1ccccc1 [Compound 3C, (E)-4-{2-[(3-phenylpropyl)sulfonyl]ethenyl}benzene-1,2-diol, reference compound] | 61.3 ± 3.22 | 75.7 ± 1.98 | 74.2 ± 4.55 | – | – | – | –
15 | CCN(CC)C(=O)Oc1ccc(/C=C/S(=O)(=O)CCCc2ccccc2)cc1OC(=O)N(CC)CC [Compound C1-1, (E)-4-[2-(3-phenylpropylsulfonyl)ethenyl]-1,2-phenylenebis(diethylcarbamate)] | 69.5 ± 3.89 | 82.2 ± 3.07 | 90.3 ± 2.17 | – | – | – | survival rate compared with the styryl sulfone prototype compounds: significantly increased
16 | CNC(=O)Oc1ccc(/C=C/S(=O)(=O)CC(Cl)c2ccc(Cl)c([N+](=O)[O-])c2)cc1O (stereo not drawn) [Compound E2-2, (E)-4-{2-[2-chloro-2-(4-chloro-3-nitrophenyl)ethylsulfonyl]ethenyl}-2-hydroxyphenyl-N-methylcarbamate] | – | – | – | 58.1 ± 4.27 | 69.3 ± 2.33 | 86.1 ± 2.06 | –
17 | COc1ccc(CC(=O)Oc2ccc(/C(C)=C/S(=O)(=O)/C=C/c3ccc(OC(=O)N(C)C)c(O[Si](C)(C)CCl)c3)cc2)cc1 [Compound P1-7, 4-{(E)-1-[(E)-3-(chloromethyldimethylsiloxy)-4-(N,N-dimethylcarbamoyloxy)styrylsulfonyl]prop-1-en-2-yl}phenyl-2-(4-methoxyphenyl) acetate] | – | – | – | 79.2 ± 3.72 | 86.6 ± 2.93 | 91.2 ± 2.08 | –
18 | CC(C)N(c1ccc(CCS(=O)(=O)/C=C/c2ccc(OC(=O)N(C)c3ccc(I)cc3)c(OCCOCc3ccccc3)c2)cc1)C(C)C [Compound A1-3, (E)-2-(2-benzyloxyethoxy)-4-{2-[4-(N,N-diisopropylamino)phenylethylsulfonyl]ethenyl}phenyl-N-(4-iodophenyl)-N-methylcarbamate] | – | – | – | 74.3 ± 3.75 | 89.7 ± 1.95 | 94.1 ± 1.87 | –
19 | CC(Br)C(Br)COc1cc(/C=C/S(=O)(=O)CCc2ccc(OCC(F)(F)F)cc2)ccc1OC(=O)Nc1ccsc1 (stereo not drawn) [Compound K1-3, (E)-2-(2,3-dibromobutoxy)-4-{2-[4-(2,2,2-trifluoroethoxy)phenylethylsulfonyl]ethenyl}phenyl-N-(thien-3-yl)carbamate] | 65.4 ± 4.31 | 72.1 ± 2.77 | 83.2 ± 1.76 | – | – | – | –
20 | C=CCOc1ccc(C/C=C/S(=O)(=O)/C=C/c2ccc(OC(C)=O)c(OC(=O)N(CC=C)CC=C)c2)cc1 [Compound K1-4, 4-{(E)-2-[(E)-3-(4-allyloxyphenyl)prop-1-en-1-yl]sulfonylethenyl}-2-(N,N-diallylcarbamoyloxy)phenyl acetate] | 76.7 ± 3.17 | 87.1 ± 2.56 | 93.2 ± 1.81 | – | – | – | –
21 | CC(=O)Oc1ccc(/C=C/S(=O)(=O)Cc2c(F)c(F)c(F)c(F)c2F)cc1OC(=O)NC(=O)c1ccc([N+](=O)[O-])c(C)c1 [Compound D5-4, (E)-2-[N-(3-methyl-4-nitrobenzoyl)carbamoyloxy]-4-{2-[(perfluorophenyl)mesyl]ethenyl}phenyl acetate] | 60.5 ± 3.19 | 73.2 ± 4.53 | 87.5 ± 2.16 | – | – | – | –
22 | O=C(/C=C/c1ccc(O)c(O)c1)OCCc1ccccc1 [Positive control group, caffeic acid phenethyl ester, reference compound] | 55 ± 3.78 | 67.1 ± 2.98 | 82.6 ± 2.13 | – | – | – | –
23 | CC(C)(C)c1ccc(CS(=O)(=O)/C=C/c2ccc(O)c(O)c2)cc1 [Compound 3G, (E)-4-{2-[(4-t-butylphenyl)mesyl]ethenyl}benzene-1,2-diol, reference compound] | 51.4 ± 3.54 | 68.4 ± 1.89 | 71.2 ± 3.75 | – | – | – | –
